Assay results as given in article PMC6792352, “Limited Chemical Structural Diversity Found to Modulate Thyroid Hormone Receptor in the Tox21 Chemical Library” (Environmental Health Perspectives, 2019).
Like-named read-outs stand apart in the source and are kept apart here.

Columns and labels:
[1] = Global cytotoxicity: eighteen Tox21 cell viability assays; format: cell-based
[2] = test system: Tox21 cell viability assays (different cell types); experiment: as above; format: cell-based
in vitro [3] = conditions: rat
[4] = test system: thyroid hormone receptor (endogenous TRα and TRβ); experiment: GH3-TRE-Antag primary qHTS, luciferase reporter, antagonist mode with 1 nM T3 (TOX21_TR_LUC_GH3_Antagonist, aeid 804); format: cell-based, rat
[5] = test system: thyroid hormone receptor (endogenous TRα and TRβ); experiment: GH3-TRE-Ag primary qHTS, luciferase reporter, agonist mode (TOX21_TR_LUC_GH3_Agonist, aeid 803); format: cell-based, rat; conditions: for AC50: read-out: GH3-TRE-Ag AC50
in vitro [6] = conditions: rat, gh3-tre-luc cells, AC50 (uM) modified / 1000
[7] = GH3-TRE-Via cell viability, CellTiter-Fluor (TOX21_TR_LUC_GH3_Antagonist_viability, aeid 805); conditions: rat
GH3-TRE-Luc cell line [8] = experiment: as above
[9] = test system: thyroid hormone receptor (TR); experiment: Classification of TR actives across characterization assays (TR-Ag / RXR-Ag; TR model binary)
In short: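 Pharmaceuticals excluded; actives called from GH3-TRE qHTS (agonist, antagonist, viability) on 8,305 chemicals. Confirmation of 84 selected chemicals used GH3-TRE-Ag, mammalian one-hybrid TRβ and RXRα UAS-bla HEK 293T specificity screens, parental HEK293T viability, and two TR:coactivator recruitment assays.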

GH3-TRE-Luc cell line [10] = conditions: rat, 24 h
[11] = test system: thyroid hormone receptor (endogenous TRα and TRβ); experiment: GH3-TRE-Ag-Followup confirmation (TOX21_TR_LUC_GH3_Agonist_Followup, aeid 2226); format: cell-based, rat
[12] = antagonist mode, 1 nM T3; read-out: GH3-TRE-Antag AC50
[13] = antagonist candidates, inactive samples arbitrarily set to AC50=1,000 μM
[14] = median over 18 Tox21 cell viability assays, inactive set to 1,000, read-out: Global cytotoxicity AC50 median
[15] = percentage of 18 Tox21 viability assays with hitc=1

Row | Structure (SMILES) | AC50 [1] | Active in global cytotoxicity assays (%) [2] | active rate in Tox21 viability/cytotoxicity assays [2] | AC50 at 24 h (in vitro [3]) | AC50 [4, 12] | AC50 [5, 13] | further results
1 | CC(C)C[C@H](NC(=O)[C@H](CCc1ccccc1)NC(=O)CN1CCOCC1)C(=O)N[C@@H](Cc1ccccc1)C(=O)N[C@@H](CC(C)C)C(=O)[C@@]1(C)CO1 [Carfilzomib] | 0.46 µM | 64.4% | 64% | 0.037 µM | 0.025 µM | > 92 µM | 
2 | COc1cccc2c1C(=O)c1c(O)c3c(c(O)c1C2=O)C[C@@](O)(C(C)=O)C[C@@H]3O[C@H]1C[C@H](N)[C@H](O)[C@H](C)O1 [Daunorubicin] | 10.5 µM | 66.1% | two-thirds | 1.01 µM |  |  | AC50 ([4]; read-out: GH3-TRE-Antag AC50; antagonist mode, 1 nM T3): 0.7 µM; AC50 [5]: > 92 µM
3 | Cc1cccc(Nc2ccccc2C(=O)O)c1C [Mefenamic acid] | 50.8 µM | 4.5% | 4.5% | > 92 µM | 19.5 µM | > 92 µM | CC50 at 24 h (in vitro [6]): > 50 µM
4 | CN(C)c1ccc(/N=N/c2ccccc2C(=O)O)cc1 [Methyl red] | 48.5 µM | 48.5% |  | 14.6 µM | 8.79 µM | > 92 µM | 
5 | COC(=O)C[C@](O)(CCCC(C)(C)O)C(=O)O[C@@H]1C(OC)=C[C@]23CCCN2CCc2cc4c(cc2[C@H]13)OCO4 [Omacetaxine mepesuccinate] | 0.06 µM | 60.0% |  | 0.057 µM | 0.029 µM | > 92 µM | CC50 at 24 h (in vitro [6]): 0.0816 µM
6 | CCCCCOc1ccc(C2SC(=O)NC2=O)cc1OCC (stereo not drawn) [Risarestat, reference compound] |  |  |  |  |  | > 92 µM | AC50 [1, 14]: 16.4 µM; Active in global cytotoxicity assays (%) [2, 15]: 11.9%; AC50 at 24 h [7]: > 92 µM; cytotoxicity in GH3 viability assay (GH3-TRE-Luc cell line [8]): lacked cytotoxicity
7 | O=C(O)Cc1cc(I)c(Oc2ccc(O)c(I)c2)c(I)c1 [Tiratricol, reference compound] | 27 µM |  |  | > 92 µM |  |  | Categorization Code ([9]; TR agonist characterization): TR-Ag; Classification ([9]; TR-Ag = TR agonist, RXR-Ag = RXR agonist): TR-Ag; GLOBAL CYTOTOXICITY cytotox.number_Active [2]: 4; GLOBAL CYTOTOXICITY cytotox.median ([2]; median over Tox21 viability assays): 27.0; TR_LUC_GH3_Antagonist_viability hitc (GH3-TRE-Luc cell line [10]): 0; EMax (% of Control) gh3-tre-agonist-followup-1_agonist [11]: 105.1 % of Control; AC50 ([11]; confirmation, agonist mode, read-out: GH3-TRE-Ag-Followup AC50): 0.0002 µM; GH3-TRE-Ag-Followup hitc ([11]; hit call from tcpl): 1; TR_LUC_GH3_Agonist_EMAX (% Control) ([5]; Table S5): 104.7 % Control; GH3-TRE-Ag AC50 hitc ([5]; hit call from tcpl): 1
8 | CCCc1c(OCCCCc2nnn[nH]2)ccc(C(C)=O)c1O [Tomelukast, reference compound] |  |  |  |  |  | > 92 µM | AC50 [1, 14]: 14.4 µM; Active in global cytotoxicity assays (%) [2, 15]: 9.1%; AC50 at 24 h [7]: > 92 µM
